System: human liver microsomes, metabolic stability half-life
Assay: NCATS Human Liver Microsomal (HLM) Stability Profiling
Settings: higher = more stable; screened at 1 µM (by protocol)
In short: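 Substrate depletion (in vitro t1/2): 1 µM compound with 0.5 mg/mL microsomes and NADPH regenerating system, phosphate buffer pH 7.4, 37 °C. Sampled at 0, 5, 10, 15, 30, 60 min into cold acetonitrile with albendazole internal standard for MS quantification.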

SMILES | half-life [min]
Cc1cccc(C=NNc2cc(N3CCOCC3)nc(OCCc3ccccn3)n2)c1 | 16
CC(=O)O[C@]1(C(C)=O)CC[C@H]2[C@@H]3C=C(Cl)C4=CC(=O)CC[C@]4(C)[C@H]3CC[C@@]21C | 36.7
COc1ccc(-c2oc3cc(OC)ccc3c2C(=O)c2ccc(C#N)cc2)cc1 | 20.6
O=C(Nc1ccccc1Br)NC1CCN(c2ccc(C(F)(F)F)cn2)C1 (stereo unspecified) | 120
CCC(=O)NS(=O)(=O)c1ccc(-c2c(-c3ccccc3)noc2C)cc1 | 48.5
CN(C)C(CCOc1cccc2ccccc12)c1ccccc1 (stereo unspecified) | 12.8
COc1cc(C(=O)OC(COCCC(C)C)CN2CCOCC2)cc(OC)c1OC (stereo unspecified) | 2.43
C#CCN(C)CCCOc1ccc(Cl)cc1Cl | 3.52
CCN(CC)C(=O)c1cccc(C)c1 | > 120
N#Cc1cnc2cnc(NCc3cccnc3)cc2c1Nc1ccc(F)c(Cl)c1 | 12.4
Cc1nc2c3ccccc3nc(NNC(=O)CCC(=O)N3CCN(c4ccc(F)cc4)CC3)n2n1 | 40.4
CCc1nn(C)c(C(=O)NCc2ccc(Oc3ccc(C)cc3)cc2)c1Cl | 7.51
COc1ccc(OC)c([C@H](O)[C@H](C)N)c1 | > 120
CN(C)[S+](=O)([O-])c1ccc([S+](=O)([O-])N(Cc2ccccc2)Cc2ccccn2)cc1 | 4.28
CC(=O)N1CCCc2cc(S(=O)(=O)Nc3ccc(OC(F)(F)F)cc3)ccc21 | 20.9
Nc1cccc(CNC(=O)c2ccc(Oc3ccc(OCc4cccc(F)c4)cc3)nc2)c1 | 29.7
CC1CCN(CC(=O)N2CCCc3c2c(=O)oc2ccc(OCc4ccccc4)cc32)CC1 | 1.52
CCc1ccc(CNC(=O)c2sc3ncccc3c2-n2c(C)ccc2C)cc1 | 1.9
C[C@H]1COc2c(C3(N)CC3)c(F)cc3c(=O)c(C(=O)O)cn1c23 | > 120
Cc1nc(N)ncc1-c1nc(N2CCOCC2)c2sc(C(C)(C)O)cc2n1 | > 120
CC1(C#N)CCN(c2c(C(=O)N3CCC(S(C)(=O)=O)CC3)cnc3cc(F)c(F)cc23)CC1 | > 120
Cc1c(-c2ccnn2C)cc(C(=O)NCc2ccc(S(C)(=O)=O)cn2)c(=O)n1-c1cccc(C(F)(F)F)c1 | > 120
c1cc2c(c(N3CCNCC3)c1)OCCO2 | > 120
Cc1cc(C)c(-n2cc(C)c3c(Cl)nc(C)nc32)c(C)c1 | 10.1
CCOC(=O)c1cc(C#N)c(N2CCC(C(=O)NS(=O)(=O)Cc3ccccc3)CC2)nc1C | 43.7
Fc1ccc(C2CCNC[C@H]2COc2ccc3c(c2)OCO3)cc1 (stereo partly specified) | 28.9

SMILES | half-life [min]
CCCCN(CCCC)CCC(O)c1cc2c(Cl)cc(Cl)cc2c2cc(C(F)(F)F)ccc12 (stereo unspecified) | 29.5
O=C(CCNc1c(-c2cccc(F)c2)nc2cnccn12)N1CCCC1 | 4.93
Cc1cc(O)c2c(c1)C(=O)c1cccc(O)c1C2=O | 1.86
Clc1ccc(COC(Cn2ccnc2)c2ccc(Cl)cc2Cl)cc1 (stereo unspecified) | 89.8
Cc1cccc(C)c1NC(=O)CN1CCCC1 | > 120
CCOc1ccccc1NC(=O)CSc1nc2ccccc2c2nc(CCn3cncc3C)nn12 | 5.36
Cc1cc(-c2ncc(CC(=O)Nc3ccc(-c4cnccn4)cn3)cc2C)ccn1 | 36.4
CC1=NOC2(CCN(Cc3ccc(C#N)cc3)C2)C1 (stereo unspecified) | > 120
COC(=O)C1=C(C)NC(C)=C(C(=O)O[C@@H]2CCCN(Cc3ccccc3)C2)[C@@H]1c1cccc([N+](=O)[O-])c1 | 1.93
COc1cccc(OC)c1-c1nc(C(=O)N[C@@H](CC(C)C)C(=O)O)cn1-c1ccnc2cc(Cl)ccc12 | > 120
C[C@@H]1O[C@@H](O[C@H]2C[C@@H](O)[C@]3(CO)[C@H]4[C@H](O)C[C@]5(C)[C@@H](C6=CC(=O)OC6)CC[C@]5(O)[C@@H]4CC[C@]3(O)C2)[C@H](O)[C@H](O)[C@H]1O | > 120
CCN(Cc1ccc(Cl)nc1)/C(=C/[N+](=O)[O-])NC | > 120
CC(C)=CCC1C(=O)N(c2ccccc2)N(c2ccccc2)C1=O | > 120
C[C@H]1CN(CC[C@H](O)C2CCCCC2)CC[C@@]1(C)c1cccc(O)c1 | 6.75
CN1C(C(=O)Nc2ccccn2)=C(O)c2sccc2S1(=O)=O | > 120
CC(C)COC[C@H](CN(Cc1ccccc1)c1ccccc1)N1CCCC1 | 21.1
O=C(Nc1ccc(-c2ccnc(Nc3ccc(N4CCOCC4)cc3)n2)cc1)C1CCCN1 (stereo unspecified) | > 120
CCN[C@H]1C[C@H](C)S(=O)(=O)C2SC(S(N)(=O)=O)C=C21 (stereo partly specified) | 105
CCCN(CCN1CCN(c2ccccc2OC)CC1)C1CCc2ncsc2C1 (stereo unspecified) | 2.54
O=C(c1ccc(F)cc1)N1CCC(C(=O)N2CCC(N3Cc4ccccc4C3=O)CC2)CC1 | > 120
Cc1ccc(C2=Nc3ccccc3N(CC(=O)Nc3ccccc3F)C(=O)C2)cc1C | 6.23
S=C(NCc1ccc2c(c1)OCO2)N1CCN(c2ncnc3c2oc2ccccc23)CC1 | 18.6
Cc1c(C)n(Cc2ccc(-c3ccccc3C(=O)O)cc2)c2ccc(C(=O)N[C@@H](C)c3ccc([N+](=O)[O-])cc3)cc12 | > 120
COc1ccc(Oc2c(Cl)cnn(-c3cc(C)cc(C)c3)c2=O)cc1 | 17.4
Cc1cc(C(C)Nc2ccccc2)c2nc(N3CCOCC3)cc(=O)n2c1 (stereo unspecified) | 17.2
CCOP(=S)(OCC)Oc1nc(Cl)n(C(C)C)n1 | 15.1

SMILES | half-life [min]
CCNCc1nc2c(N)nc3ccccc3c2n1CC(C)(C)O | > 120
O=C(Nc1cccnc1)N1CCC(Cc2cccc(Oc3ccc(C(F)(F)F)cn3)c2)CC1 | 33.9
CC1=CC(=O)c2ccccc2C1=O | 11.4
Cc1ccc(S(=O)(=O)Nc2nc3n(n2)C(c2ccc(F)cc2)C=C(c2ccccc2)N3)cc1 (stereo unspecified) | > 120
c1cc(-c2cc(C3CCNCC3)[nH]n2)ccn1 | 72.6
CCCCCOc1cc2c(cc1-c1cc(/C=C/C(=O)O)ccc1O)C(C)(C)CCC2(C)C | 10.8
COc1cc(C=O)ccc1O | 97.1
CC(=O)OCC(=O)[C@@]12OC(C)(C)O[C@@H]1C[C@H]1[C@@H]3C[C@H](F)C4=CC(=O)C=C[C@]4(C)[C@@]3(F)[C@@H](O)C[C@@]12C | 44.3
NC(=O)c1ccc(Cc2c(-c3cccc(-c4ccccc4)c3)[nH]n(-c3nc(C(=O)O)cs3)c2=O)cc1 | > 120
CCCCCCCCC(=O)NCc1ccc(O)c(OC)c1 | 3.71
CCOc1cc(NC(C)=O)ccc1C(=O)OC | 6.75
CCCCNC(=O)NS(=O)(=O)c1ccc(C)cc1 | 115
Cc1cc(Nc2nc(N[C@@H](C)c3ccc(F)cc3)c(C#N)cc2F)n[nH]1 | > 120
COc1ccccc1N1CCN(CCCNc2cc(=O)n(C)c(=O)n2C)CC1 | > 120
COc1ccc2c(CNCCc3ccccc3OC)c(C(=O)O)n(Cc3ccc(F)cc3Cl)c2c1 | 1.79
CN(C)c1cc2c(cc1Sc1nc3c(N)nccc3n1CCNCC(C)(C)C)OCO2 | 3.18
COc1cc(C(=O)N2CCCCCCC2)cc(OC)c1OC | 29.3
Cc1nc2ccc(CN(C)c3ccc(C(=O)NC(CCC(=O)O)C(=O)O)s3)cc2c(=O)[nH]1 (stereo unspecified) | > 120
CC1CCN(C(c2ccc(F)cc2)c2ccc(C(C)C(=O)O)cc2-c2ccc(C(F)(F)F)cc2)CC1 (stereo unspecified) | 115
CC1(C)O[C@H]2CC(=O)OC[C@]23[C@H]2CC[C@@]4(C)[C@H](c5ccoc5)OC(=O)[C@H]5O[C@]54[C@]2(C)C(=O)C[C@@H]13 | 13.4
CCOC(=O)[C@H](CCc1ccccc1)N[C@H]1CCCN2CCC[C@@H](C(=O)O)N2C1=O | 16.7
CC(C)(C)NC[C@H](O)c1cc(O)cc(O)c1 | > 120
COc1ccc(-c2ccc3ncc4c(c3c2)n(-c2ccc(N3CCNCC3)c(C(F)(F)F)c2)c(=O)n4C)cn1 | 36.3
CC(=O)NC[C@H]1CN(c2ccc(N3CCN(C(=O)CO)CC3)c(F)c2)C(=O)O1 | > 120
COc1ccc(-c2oc3ncn4nc(COc5c(C)cccc5C)nc4c3c2-c2ccc(OC)cc2)cc1 | 13.2
Cc1cccc(NC(c2ccccc2F)c2ccc3ccc(C)nc3c2O)n1 (stereo unspecified) | 14.1

SMILES | half-life [min]
C[C@]12CC[C@@H]3c4ccc(O)cc4CC[C@H]3[C@@H]1C[C@@H](O)[C@@H]2O | > 120
COc1cc(=O)n2c(c1C(=O)NCc1ccc3c(c1)OCO3)CCN(C(=O)c1ccc(C)cc1C)CC2 | 34.4
CC1=C(C(=O)Nc2cccc(CN)c2)C(c2ccccc2Cl)N=C(Nc2nc3ccccc3o2)N1 (stereo unspecified) | > 120
Cn1cc(-c2cnc3ccc4ccc(CS(=O)(=O)NCc5ccccn5)cc4c(=O)c3c2)cn1 | 17.1
O=c1[nH]c2cccc(N3CCN(Cc4ccc(-c5ccccc5)cc4)CC3)c2o1 | 31.7
Cc1cc(C)cc(NC(=O)Nc2cccs2)c1 | 3.55
O=C(NCc1ccco1)c1ccc2c(c1)N(Cc1cccc(Cl)c1)C(=O)c1ccccc1S2=O (stereo unspecified) | 0.62
CCOCc1cc(CN2CCN(c3cccc(C(F)(F)F)c3)CC2)c(O)c2ncccc12 | 12.6
c1ccc2c(c1)CCC[C@H]2C1=NCCN1 | > 120
COc1cc(/C=N\NC(=O)c2ccc3c(c2)OCO3)ccc1OCc1ccccc1 | 23.5
CCc1nn(CCCN2CCN(c3cccc(Cl)c3)CC2)c(=O)n1CCOc1ccccc1 | 0.98
CNC(=O)c1ccc(N2C(=S)N(c3cnc(C#N)c(C(F)(F)F)c3)C(=O)C23CCC3)cc1F | > 120
COc1ccc(NC(=O)Cn2cc(C(=O)c3cccs3)c3ccccc32)cc1 | 16.6
CC(C)(C)c1ccc(CNC(=S)NCc2ccc(NS(C)(=O)=O)c(F)c2)cc1 | 43
COc1ccc2nc(S(=O)Cc3ncc(C)c(OC)c3C)[nH]c2c1 (stereo unspecified) | > 120
CNCC[C@@H](Oc1ccccc1C)c1ccccc1 | 23.9
CC(=O)N1C[C@H](O)C[C@H]1C(=O)O | 50.1
COCC(C)N(C(=O)CCl)c1c(C)csc1C (stereo unspecified) | 10.9
O=C(NC1(c2ccccc2)CC1)c1c(CN2CCC(N3CCCCC3)CC2)c(-c2cccc(C(F)(F)F)c2)nc2cc(Br)ccc12 | 28.1
COc1ccccc1N1CCNCC1 | > 120
O=C(C=Cc1cccc(S(=O)(=O)Nc2ccccc2)c1)NO | > 120
COc1cc2nc(Cl)nc(N)c2cc1OC | 105
Cc1cn([C@@H]2O[C@H](CO)[C@@H](O)[C@H]2F)c(=O)[nH]c1=O | 22.1

Reference: PubChem BioAssay AID1963597 (National Center for Advancing Translational Sciences (NCATS), 2024)
